Measurements from patent US20080039438A1, “1B-Methylcarbapenem Derivative and Process for the Preparation Thereof” (Korea Institute of Science and Technology, priority 2004, published 2008).

Columns and labels:
Proteus mirabilis = test: MIC against clinically isolated aerobic Gram-negative strains; assay type: cell-based; details: 15 strains
[1] = tested on: Staphylococcus aureus 503; test: MIC against standard strains (agar dilution); assay type: cell-based; details: standard strain Staphylococcus aureus 503, 37° C., 18 to 20 hours, read-out: Minimum Inhibitory Concentration (MIC)
Bacteroides fragilis = test: MIC against clinically isolated anaerobic Gram-negative strains; assay type: cell-based; details: 34 strains
Pseudomonas aeruginosa = test: MIC against clinically isolated aerobic Gram-negative strains; assay type: cell-based; details: 60 strains
Salmonella typhimurium = test: MIC against standard strains (agar dilution); assay type: cell-based; details: Salmonella enterica, standard strain Salmonella typhimurium, 37° C., 18 to 20 hours, read-out: Minimum Inhibitory Concentration (MIC)
[2] = tested on: Streptococcus pyogenes 308A; test: MIC against standard strains (agar dilution); assay type: cell-based; details: standard strain Streptococcus pyogenes 308A, 37° C., 18 to 20 hours, read-out: Minimum Inhibitory Concentration (MIC)
[3] = Pharmacokinetics test in rats; assay type: in vivo, Sprague-Dawley rats
Description: (§1) The pharmacokinetic behavior of the sodium 3-carboxylate compound of Example was determined as follows. Male Sprague-Dawley rats (weighing 250 g, 14-15 weeks old, 5 rats/group) and Beagle dogs (weighing 10 kg, 3 dogs/group) were maintained by feeding conventional hard food at identical conditions for more than 7 days. The test animals were fasted except water for more than 24 hours before tested. […] 500 μl of each blood sample was centrifuged at 12,000 rpm for 30 seconds, the supernatant was filtered through a 0.22 μm filter, and analyzed by HPLC/UV, and the result was listed in Table 7.

Citrobacter freundii = test: MIC against clinically isolated aerobic Gram-negative strains; assay type: cell-based; details: 14 strains
Enterococcus faecium = test: MIC against clinically isolated aerobic Gram-positive strains; assay type: cell-based; details: clinically isolated Enterococcus faecium, 29 strains
Clostridium perfringens = test: microbe, parasite or virus in culture; assay type: cell-based; details: Clostridium perfringens
[4] = tested on: Klebsiella aerogenes 1522E; test: MIC against standard strains (agar dilution); assay type: cell-based; details: standard strain Klebsiella aerogenes 1522E, 37° C., 18 to 20 hours, read-out: Minimum Inhibitory Concentration (MIC)
Escherichia coli DC 2 = test: MIC against standard strains (agar dilution); assay type: cell-based; details: DC2; standard strain Escherichia coli DC 2; agar, 37° C., 18 to 20 hours; read-out: Minimum Inhibitory Concentration (MIC)
Providentia sp. = test: MIC against clinically isolated aerobic Gram-negative strains; assay type: cell-based; details: 13 strains
[5] = tested on: Pseudomonas aeruginosa 9027; test: MIC against standard strains (agar dilution); assay type: cell-based; details: standard strain Pseudomonas aeruginosa 9027, 37° C., 18 to 20 hours, read-out: Minimum Inhibitory Concentration (MIC)
[6] = Pharmacokinetics test in dogs; assay type: in vivo, Beagle dogs; details: Beagle, supernatant of centrifuged blood; dog, intravenous, 5 mg/kg
Description: as §1

[7] = tested on: Enterobacter cloacae 1321E; test: MIC against standard strains (agar dilution); assay type: cell-based; details: standard strain Enterobacter cloacae 1321E, 37° C., 18 to 20 hours, read-out: Minimum Inhibitory Concentration (MIC)
[8] = tested on: Streptococcus pyogenes 77A; test: MIC against standard strains (agar dilution); assay type: cell-based; details: standard strain Streptococcus pyogenes 77A, 37° C., 18 to 20 hours, read-out: Minimum Inhibitory Concentration (MIC)
DHP-I = biological target: T1, DHP-I (Sus scrofa, UniProt P22412); assay type: in vitro ADME, porcine; details: pig, 50 μg/ml, pH 7
T1 construct: DHP-I used in the experiment was isolated from the kidney cortex of a porcine; from tissue; host or cells: porcine kidney cortex
Description: To investigate the stability of sodium 3-carboxylate compound of formula (I) prepared in Example to DHP-I secreted in the kidney, the following experiment was performed.
DHP-I used in the experiment was isolated from the kidney cortex of a porcine. The enzyme quantity at which the concentration of imipenem was reduced by one half by hydrolysis at 30° C. for 30 minutes was defined as one unit. 50 μg/ml of a test drug and a unit of DHP-I were added to 1 ml of MOPS buffer (pH 7.0), the mixture was maintained at 30° C. and OD values at 299 nm were measured after 0.5, 1, 2, 4 hours.

Enterobacter aerogenes = test: MIC against clinically isolated aerobic Gram-negative strains; assay type: cell-based; details: 14 strains
Escherichia coli 1507E = test: MIC against standard strains (agar dilution); assay type: cell-based; details: standard strain Escherichia coli 1507E, 37° C., 18 to 20 hours, read-out: Minimum Inhibitory Concentration (MIC)
Klebsiella pneumoniae = test: MIC against clinically isolated aerobic Gram-negative strains; assay type: cell-based; details: 30 strains
[9] = tested on: Streptococcus faecium MD 8b; test: MIC against standard strains (agar dilution); assay type: cell-based; details: Enterococcus faecium, MD8B, standard strain Streptococcus faecium MD 8b, 37° C., 18 to 20 hours, read-out: Minimum Inhibitory Concentration (MIC)
Streptococcus pyogenes = test: MIC against clinically isolated aerobic Gram-positive strains; assay type: cell-based; details: 15 strains
[10] = male, Sprague-Dawley, supernatant of centrifuged blood, rat, intravenous, 20 mg/kg

T1 sequence (P22412 17-384): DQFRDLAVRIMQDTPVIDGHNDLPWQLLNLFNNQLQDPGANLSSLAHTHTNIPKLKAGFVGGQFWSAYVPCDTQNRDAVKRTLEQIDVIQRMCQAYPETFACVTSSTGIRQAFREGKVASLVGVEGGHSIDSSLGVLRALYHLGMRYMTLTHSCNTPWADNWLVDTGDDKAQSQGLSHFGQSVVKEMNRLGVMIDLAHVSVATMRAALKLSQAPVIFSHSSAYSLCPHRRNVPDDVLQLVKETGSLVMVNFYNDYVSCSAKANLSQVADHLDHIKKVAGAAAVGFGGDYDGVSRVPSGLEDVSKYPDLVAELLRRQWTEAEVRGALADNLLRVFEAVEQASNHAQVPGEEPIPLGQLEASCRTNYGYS

## C[C@@H](O)[C@H]1C(=O)N2C(C(=O)O)=C(S[C@@H]3CN[C@H](/C=C/c4cc(C(=O)O)no4)C3)[C@H](C)[C@H]12 [Example, (1R,5S,6S,8R,3′S,5′S)-2-{5′-[(E)-2-(3-carboxylic acid or sodium carboxylate-5-isoxazolo)ethenyl]pyrrolidin-3′-ylthio}-6-(1-hydroxyethyl)-1-methylcarbapen-2-em-3-carboxylic acid]
Proteus mirabilis
  MIC50: 0.03 µg/mL
  MIC90: 0.06 µg/mL
  MIC Range: 0.015 to 0.06 µg/mL
[1]
  MIC: 0.098 µg/mL
Bacteroides fragilis
  MIC50: 0.5 µg/mL
  MIC90: 1 µg/mL
  MIC Range: 0.25 to 4 µg/mL
Pseudomonas aeruginosa
  MIC50: 4 µg/mL
  MIC90: 64 µg/mL
  MIC Range: 0.06 to 128 µg/mL
Salmonella typhimurium
  MIC: 0.049 µg/mL
[2]
  MIC: 0.049 µg/mL
[3]; in rats, versus meropenem
  higher bioavailability than meropenem: about 4 fold
  longer half-life than meropenem: about 3 fold
[3]; [10]
  clearance: 13.3 ± 1.5 mL/min/kg
  half-life: 12.4 ± 4.1 min
[3]; male, Sprague-Dawley, supernatant of centrifuged blood, rat, intravenous, 20 mg/kg, read-out: AUC (converted)
  AUC: 25300 ng·h/mL
Citrobacter freundii
  MIC50: 0.03 µg/mL
  MIC90: 0.12 µg/mL
  MIC Range: 0.015 to 0.25 µg/mL
Enterococcus faecium
  MIC Range: 16 to 128 µg/mL
Enterococcus faecium; read-out: MIC50
  MIC50: 128 µg/mL
Enterococcus faecium; read-out: MIC90
  MIC90: 128 µg/mL
Clostridium perfringens
  MIC50: 0.06 µg/mL
  MIC90: 0.12 µg/mL
[4]
  MIC: 0.049 µg/mL
Escherichia coli DC 2
  MIC: 0.025 µg/mL
Providentia sp.
  MIC50: 0.06 µg/mL
  MIC90: 8 µg/mL
  MIC Range: 0.008 to 8 µg/mL
[5]
  MIC: 0.098 µg/mL
[6]
  AUC: 14400 ng·h/mL
  half-life: 41 min
[7]
  MIC: 0.025 µg/mL
[8]
  MIC: 0.049 µg/mL
DHP-I
  higher stability to DHP-I than imipenem: about 25 fold
Enterobacter aerogenes
  MIC Range: 0.015 to 0.12 µg/mL
Enterobacter aerogenes; Klebsiella aerogenes
  MIC50: 0.06 µg/mL
  MIC90: 0.25 µg/mL
Escherichia coli 1507E
  MIC: 0.025 µg/mL
Klebsiella pneumoniae
  MIC50: 0.03 µg/mL
  MIC90: 0.12 µg/mL
  MIC Range: 0.015 to 0.25 µg/mL
[9]
  MIC: 12.5 µg/mL
Streptococcus pyogenes
  MIC50: < 0.008 µg/mL
  MIC90: < 0.008 µg/mL
  MIC Range: <0.008 µg/mL
